The LD50 is the dose at which mortality reaches 50%. Read a high LD50 as a less toxic substance.

Among the data in ChEMBL document CHEMBL1157982, “Isolation, identification, and enantioselective synthesis of octane-1,3,7-triol: determination of its absolute configuration” (J Nat Prod, 1999) are Activity and LD50 values, retold here.

Data set [1] has as its system Bacillus subtilis. The data set can be described thus: Antibacterial activity against Bacillus subtilis at 5 umol/L. Format: functional.
The nature of data set [2]: Toxicity in rat. It is filed as organism-based. As to conditions: in vivo.

On to `CCCCC[C@@H](O)CCO`, for which, in data set [1], the Activity is reported as 50%. Further, the LD50 in data set [2] turned out to be 20000 mg/kg.
